Measured values from publication PMC5938390, “Tachyplesin Causes Membrane Instability That Kills Multidrug-Resistant Bacteria by Inhibiting the 3-Ketoacyl Carrier Protein Reductase FabG” (Frontiers in Microbiology, 2018).
Positions of bridges follow the written chain, without caps; N, C: chain ends. No end group written: not given here.

Columns and labels:
E. coli 513 [1] = assay: Transcriptome analysis (RNA sequencing, FPKM, DESeq); type: cell-based, Escherichia coli; details: Ec, Ta 16 μg/ml or Lvf 32 μg/ml, 30 min, 37°C
Description: (§1) The Vitek 32 system (bioMerieux, France) and 16S rDNA sequencing were used to verify the clinical isolates A. baumannii 1408, P. aeruginosa 1409, Klebsiella pneumoniae 5 and E. coli 513, which were grown overnight in Luria-Bertani (LB) medium at 37°C with constant shaking at 220 rpm to reach the middle of their logarithmic growth phase. […] After the addition of 2 volumes of RNAprotect Bacteria Reagent (QIAGEN) to stabilized RNA, samples were vortexed for 5 s, incubated for 5 min at room temperature (15–25°C) and collected by centrifugation at 4°C for 5 min at 4000 g.
(§2) RNA isolation and sequencing were performed by Novogene Bioinformatics Technology Co., Ltd. (Beijing, China) as previously described ([Liu B. et al., 2014]). Clean reads were mapped to the corresponding bacterial genomes using Bowtie 2 software ([Langmead and Salzberg, 2012]). Gene expression was calculated using the FPKM (expected number of fragments per kilobase of transcript sequence per millions of base pairs sequenced) method with HTSeq software (union model) ([Anders et al., 2015]). Differentially expressed genes were selected based on the DESeq R package with Padj values < 0.05 ([Anders and Huber, 2010]). KEGG pathway analysis was performed using KOBAS (2.0), and the corrected p value cut-off was set at 0.05 ([Li et al., 2015]).

P. aeruginosa 1409 [2] = assay: MIC against MDR clinical isolate; type: cell-based, Pseudomonas aeruginosa
K. pneumoniae 5 [3] = assay: MIC against clinical isolate; type: cell-based, Klebsiella pneumoniae
E. coli 513 [4] = assay: MIC against clinical isolate; type: cell-based, Escherichia coli
K. pneumoniae 5 [5] = assay: Transcriptome analysis (RNA sequencing, FPKM, DESeq); type: cell-based, Klebsiella pneumoniae; details: Kp, Ta 16 μg/ml or Lvf 32 μg/ml, 30 min, 37°C
Description: as §1, §2

A. baumannii 1408 [6] = assay: as above; type: cell-based, Acinetobacter baumannii; details: Ab, Ta 16 μg/ml or Lvf 32 μg/ml, 30 min, 37°C
Description: as §1, §2

[7] = tested on: P. aeruginosa strain 1409; assay: Membrane rupture by propidium iodide staining; type: cell-based, Pseudomonas aeruginosa; details: LB medium, 25°C, 1 h, then PI 10 μg/ml 30 min
Description: These studies were carried out as we previously reported with slight modifications and briefly introduced as follows ([Liu et al., 2017]). […] Cytotoxicity in different cell lines was assessed using the Cell Proliferation Kit II (XTT) (Roche), and cytotoxicity in hemocytes was evaluated by the increase in the absorbance at 540 nm after peptide incubation. Membrane rupture was indicated by the entrance of the DNA-binding fluorescent dye PI into MDR clinical isolates of P. aeruginosa strain 1409. Membrane translocation of N-terminal FITC-conjugated tachyplesin III (purity ≥ 95%, synthesized by GL Biochem Co., Ltd, Shanghai, China) into MDR clinical isolates of Acinetobacter baumannii strain 1408 were detected by confocal laser-scanning microscopy.
After centrifugation at 3000 g for 10 min, cells were resuspended in the same volume of PBS (phosphate-buffered saline, 8 g/L NaCl, 0.2 g/L KCl, 1.44 g/L Na2HPO4, 0.24 g/L KH2PO4, pH 7.4). Then, PI was added to a final concentration of 10 μg/ml. After 30 min of incubation at 25°C, the cells were washed three times with PBS and immediately imaged with a fluorescence microscope.

A. baumannii 1408 [8] = assay: MIC against MDR clinical isolate; type: cell-based, Acinetobacter baumannii
P. aeruginosa 1409 [9] = type: cell-based, Pseudomonas aeruginosa; details: Pa, Ta 16 μg/ml or Lvf 32 μg/ml, 30 min, 37°C
Description: as §1, §2

[10] = target: T1, 3-ketoacyl carrier protein reductase FabG from E. coli (E. coli, UniProt P0AEK2 1-244); assay: SPR; tachyplesin III amine-coupled to a CM5 chip (approximately 1000 resonance units); FabG (1.25, 2.5, 5, 10 μg/mL) in HBS-N running buffer injected at 20 μl/min for 6 min; Biacore 3000; 1:1 Langmuir binding model; details: both partners purified
T1 construct: FabG, 3-ketoacyl-acyl carrier protein reductase, E. coli; cloned into the NcoI and XhoI sites of pET28a; also called 3-ketoacyl-acyl carrier protein reductase; β-ketoacyl-acyl carrier protein (ACP) reductase FabG; source: E. coli BL21 DE3 (pET28a), purified with Ni resin
T1 sequence: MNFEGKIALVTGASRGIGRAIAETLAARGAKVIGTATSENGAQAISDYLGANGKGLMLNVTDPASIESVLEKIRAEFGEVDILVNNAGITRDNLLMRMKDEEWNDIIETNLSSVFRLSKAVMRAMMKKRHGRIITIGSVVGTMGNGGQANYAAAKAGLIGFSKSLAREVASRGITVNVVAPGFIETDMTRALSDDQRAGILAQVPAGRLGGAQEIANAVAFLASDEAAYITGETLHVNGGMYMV

C[C@H]1COc2c(N3CCN(C)CC3)c(F)cc3c(=O)c(C(=O)O)cn1c23 [levofloxacin]
FPKM of gene b1943 (E. coli 513 [1]; control 0): 0
FPKM of gene b1815 (E. coli 513 [1]; control 22.7313): 15.6958
FPKM of gene b0242 (E. coli 513 [1]; control 40.7621): 43.1933
FPKM of gene b2495 (E. coli 513 [1]; control 62.5019): 46.4771
FPKM of gene b4004 (E. coli 513 [1]; control 64.6122): 63.7219
FPKM of gene b3846 (3-hydroxyacyl-CoA dehydrogenase) (E. coli 513 [1]; control 97): 94
FPKM of gene b1093 (3-ketoacyl-acyl carrier protein reductase) (E. coli 513 [1]; control 633): 627
readcount of gene b0001 in treated sample (E. coli 513 [1]; differential analysis): 28.7713
readcount of gene b0002 in treated sample (E. coli 513 [1]; differential analysis): 277.558
readcount of gene b0003 in treated sample (E. coli 513 [1]; differential analysis): 192.091
readcount of gene b0004 in treated sample (E. coli 513 [1]; differential analysis): 222.554
readcount of gene b0005 in treated sample (E. coli 513 [1]; differential analysis): 14.3856
32 μg/ml levofloxacin expressed as multiple of MIC (P. aeruginosa 1409 [2]; P. aeruginosa 1409): 2 × MIC
1/4× MIC (P. aeruginosa 1409 [2]; P. aeruginosa strain 1409): 4 µg/mL
4× MIC (P. aeruginosa 1409 [2]; P. aeruginosa strain 1409): 64 µg/mL
32 μg/ml levofloxacin expressed as multiple of MIC (K. pneumoniae 5 [3]): 2 × MIC
32 μg/ml levofloxacin expressed as multiple of MIC (E. coli 513 [4]): 1 × MIC
FPKM of gene KPNJ2_01473 (K. pneumoniae 5 [5]; control 0): 1.282
FPKM of gene KPNJ2_01064 (K. pneumoniae 5 [5]; control 3.68216): 0
FPKM of gene KPNJ2_04725 (K. pneumoniae 5 [5]; control 22.8601): 21.9489
FPKM of gene KPNJ2_03426 (3-ketoacyl-acyl carrier protein reductase) (K. pneumoniae 5 [5]; control 41.4): 80.6
FPKM of gene KPNJ2_01584 (Enoyl-CoA hydratase) (K. pneumoniae 5 [5]; control 128): 190
FPKM of gene KPNJ2_04200 (K. pneumoniae 5 [5]; control 4040.19): 4507.07
readcount of gene KPNJ2_00001 in treated sample (K. pneumoniae 5 [5]; differential analysis): 119.391
readcount of gene KPNJ2_00002 in treated sample (K. pneumoniae 5 [5]; differential analysis): 95.8073
readcount of gene KPNJ2_00003 in treated sample (K. pneumoniae 5 [5]; differential analysis): 27.2682
readcount of gene KPNJ2_00004 in treated sample (K. pneumoniae 5 [5]; differential analysis): 368.489
readcount of gene KPNJ2_00005 in treated sample (K. pneumoniae 5 [5]; differential analysis): 375.122
FPKM of gene A1S_1815 (A. baumannii 1408 [6]; control 0): 0
FPKM of gene Novel00132 (A. baumannii 1408 [6]; control 18.2658): 8.387
FPKM of gene A1S_0707 (A. baumannii 1408 [6]; control 51.3724): 62.4914
FPKM of gene A1S_2182 (A. baumannii 1408 [6]; control 136.449): 191.991
FPKM of gene A1S_2061 (3-ketoacyl-acyl carrier protein reductase) (A. baumannii 1408 [6]; control 323): 328
FPKM of gene A1S_1368 (A. baumannii 1408 [6]; control 2030.48): 1961.71
readcount of gene A1S_0001 in treated sample (A. baumannii 1408 [6]; differential analysis): 246.119
readcount of gene A1S_0002 in treated sample (A. baumannii 1408 [6]; differential analysis): 308.109
readcount of gene A1S_0003 in treated sample (A. baumannii 1408 [6]; differential analysis): 33.1432
readcount of gene A1S_0004 in treated sample (A. baumannii 1408 [6]; differential analysis): 622.97
membrane integrity (PI fluorescence) ([7]; 1/4× MIC): did not affect the integrity of bacterial membranes
membrane integrity (PI fluorescence) ([7]; 4× MIC (high concentration)): some of the bacterial membranes were broken slightly
32 μg/ml levofloxacin expressed as multiple of MIC (A. baumannii 1408 [8]): 1 × MIC
FPKM of gene PADK2_26395 (P. aeruginosa 1409 [9]; control 7.76041): 10.0809
FPKM of gene PADK2_02440 (P. aeruginosa 1409 [9]; control 10.8663): 14.499
FPKM of gene PADK2_25635 (P. aeruginosa 1409 [9]; control 48.5098): 42.4346
FPKM of gene PADK2_02970 (P. aeruginosa 1409 [9]; control 53.0528): 66.953
FPKM of gene PADK2_25405 (3-ketoacyl-acyl carrier protein reductase) (P. aeruginosa 1409 [9]; control 56): 43
FPKM of gene PADK2_17500 (P. aeruginosa 1409 [9]; control 97.7062): 119.076
FPKM of gene PADK2_09275 (3-hydroxyacyl-CoA dehydrogenase) (P. aeruginosa 1409 [9]; control 361): 369
readcount of gene Novel00001 in treated sample (P. aeruginosa 1409 [9]; differential analysis): 77.24
readcount of gene Novel00002 in treated sample (P. aeruginosa 1409 [9]; differential analysis): 21.4195
readcount of gene Novel00003 in treated sample (P. aeruginosa 1409 [9]; differential analysis): 79.1872
readcount of gene Novel00004 in treated sample (P. aeruginosa 1409 [9]; differential analysis): 104.501
readcount of gene Novel00005 in treated sample (P. aeruginosa 1409 [9]; differential analysis): 85.0289

B1: tachyplesin III (peptide)
peptide: KWCFRVCYRGICYRKCR
modifications: disulfide 7-12, 3-16; ends not checked
notes: tachyplesin III, cationic beta-hairpin antimicrobial peptide from horseshoe crab hemocytes; 17 residues; Coupled to the CM5 chip through amines in the SPR; source: synthetic peptide (purity ≥ 95%, synthesized by GL Biochem Co., Ltd, Shanghai, China)
binding result [10]: binds
